Where two headings read alike, the source gives them in different places.
Tests used:
[1] = General toxicity in vivo: body and spleen weight; parameters: species or system mouse; conditions: for Weight, Body (percentage of control animals) / Weight, Spleen: three days
Method: General toxicity was evaluated in vivo in mice that received CN-chalcone 4 intraperitoneally at a dose of 350 μmol/kg (100 mg/kg) per day during three consecutive days. As reported in Table 2, there was no body or spleen weight loss nor any modification of cytochrome c oxidase activity in lung and heart, indicating no toxicity of CN-chalcone 4 administered at the highest active dose.

[2] = system: CXCL12 action on forskolin-evoked cAMP responses via CXCR4; experiment: cAMP determination with BRET sensor CAMYEL in HEK EGFP-hCXCR4 cells; format: cell-based; conditions: Homo sapiens; HEK293 EGFP-hCXCR4, 1 μM forskolin, 3 nM CXCL12; read-out: IC50, inhibition of CXCL12 effect on forskolin-evoked cAMP formation
Method: CXCR4 receptor coupling to adenylyl cyclase was assessed by measuring the dose-dependent inhibitory effects of chemokine with or without chalcone on forskolin-stimulated cAMP accumulation. To facilitate studies of cAMP regulation, we used a developed bioluminescence resonance energy transfer (BRET) sensor for cAMP, CAMYEL (cAMP sensor using YFP-Epac-RLuc), which can quantitatively and rapidly monitor intracellular concentrations of cAMP in cells ([47]). HEK EGFP-hCXCR4 cells were cultured to ∼80% confluence in 75-cm^2 flasks in MEM with Earle's salt supplemented with 10% fetal calf serum, 2 mM glutamine, and 1% antibiotics (penicillin/streptomycin). Cells were plated on 10-cm plates and transfected with 10 μg of CAMYEL plasmid using the calcium phosphate precipitation method. Two days later, cells were plated in 96-well solid white tissue culture plates (Greiner) at a density of 60,000 cells/well the day before cAMP assay. […] The BRET assay was carried out with a Victor Light plate reader (PerkinElmer Life Sciences). Emission signals from Renilla luciferase and YFP were measured sequentially using a BRET1 filter set (475-30/535-30). […] After 5 min, 10 μl of a Hanks' balanced salt solution of coelenterazine-H (2 μM) were added, and plates were incubated for 10 min at 37 °C before reading.

CXCL12 binding to CXCR4 = molecular target: T1, CXCL12 binding to CXCR4 (Homo sapiens, UniProt P48061); experiment: FRET-based binding of CXCL12-TR to EGFP-hCXCR4 (competition); conditions: dose-dependent
T1 construct: expressed in transfected cells
Method: FRET-based binding experiments were carried out as described ([26], [46]). Human embryonic kidney 293 cells expressing the fusion receptor EGFP-hCXCR4 were harvested in PBS (137 mM NaCl, 2.7 mM KCl, 4.3 mM Na2PO4·7H2O, 1.4 mM KH2PO4, pH 7.4) supplemented with 5 mM EDTA, pH 7.4, centrifuged, and resuspended in HEPES-bovine serum albumin (BSA) buffer (10 mM HEPES, 137.5 mM NaCl, 1.25 mM MgCl2, 1.25 mM CaCl2, 6 mM KCl, 10 mM glucose, 0.4 mM NaH2PO4, 0.1% bovine serum albumin (w/v), pH 7.4). Cells were used at a concentration of 10^6 cells/ml. Apparent affinities of the different ligands were determined by real-time fluorescence monitoring ligand-receptor interactions. […] Fluorescence emitted at 510 nm (excitation at 470 nm) was recorded at 21 °C using a Fluorolog 2 spectrofluorimeter (SPEX) and sampled every 0.3 s. Binding of CXCL12-TR to EGFP-labeled CXCR4 was detected as a reversible decline of emission at 510 nm, due to energy transfer from excited EGFP to TR. For competition experiments, the fluorescent chemokine was preincubated for 1 h at room temperature with or without various concentrations of each chalcone. Then the premix was added, and fluorescence was recorded until equilibrium was reached (300 s). Data were analyzed using Kaleidagraph 3.08 software (Synergy Software, Reading, PA).

Stability in mouse serum = format: in vitro ADME; conditions: 37 °C; for half-life at 20 μM: mouse, mouse serum
Method: Solubility and stability studies were performed on a Gilson HPLC system with a photodiode array detector, an autosampler, and a Valco injector. Data acquisition and processing were performed with Trilution LC version 2.0 software. Measurements were carried out at 21 ± 1 °C. A 2.6-μm Kinetex column (50 × 4.6 mm) was used for stability studies in biological media, and a 5-μm Luna C18(2) column (50 × 4.6 mm) was used for solubility and chemical stability analysis. Both columns were purchased from Phenomenex. The injection volume was 20 μl, the mobile phase flow rate was 2 ml/min, and the following program was applied for the elution: 0–0.2 min, 0% B; 0.2–2.7 min, 0–100% B; 2.7–3.2 min, 100% B; 3.2–3.4 min, 100–0% B; 3.4–6.1 min, 0% B. Solvent B was HPLC grade acetonitrile (Sigma-Aldrich CHROMASOLV). The aqueous solvent contained 0.1% trifluoroacetic acid, and the detection wavelength was 365 nm.
Stability of chalcones was determined in mouse serum with or without 10% HP-βCD at 37 °C up to 16 h. For each compound, the 10 mM DMSO stock solution was diluted in serum to a final concentration of 20 μM with 1% DMSO. For the measurements with HP-β-cyclodextrin, a solution of PBS (pH 7.4) containing 10% (v/w) HP-βCD was saturated with compound powder. The saturated solution was then diluted in murine serum to a final compound concentration of 20 μM. The mixture was divided into five aliquots. The incubation of each aliquot was stopped at t0 and 30 min, 1, 2, and 16 h for chalcone 4 and at t0 and 15, 30, 45, and 60 min for CN-chalcone 4 by adding one volume of ice cold acetonitrile. Samples were stirred for 3 min, sonicated for 3 min, and then centrifuged at 4 °C before HPLC injection. The percentage of remaining test compound relative to t0 was measured by monitoring the peak area on the chromatogram.

[3] = parameters: method as in PMID 24900366; conditions: cited from earlier work
[4] = parameters: method as in PMID 24900366; conditions: cited from earlier work; remark: listed apart in the source
[5] = OVA-challenged mice, intraperitoneal 350 μmol/kg per day
[6] = 20 μM, with 10% HP-βCD, read-out: Stability half-life (t1/2), murine serum, 10% β-cyclodextrine (converted)
[7] = 20 μM, read-out: Stability half-life (t1/2), murine serum (converted)

percentage of starting molecule recovered, murine serum (Stability in mouse serum; at 16 h) | percentage of starting molecule recovered, murine serum, 10% β-cyclodextrine (Stability in mouse serum; at 16 h) | SMILES | Weight, Body (percentage of control animals) [1, 5] | Weight, Spleen [1, 5] | Weight, Body (percentage of control animals) ([1]; mice without OVA, intraperitoneal 350 μmol/kg (100 mg/kg) per day, carboxymethylcellulose) | Weight, Spleen ([1]; mice without OVA, intraperitoneal 350 μmol/kg per day) | general toxicity in vivo (body and spleen weight, cytochrome c oxidase activity in lung and heart) ([1]; mice, intraperitoneal 350 μmol/kg (100 mg/kg) per day during three consecutive days) | IC50 [2] | concentration giving maximal inhibition of CXCL12 binding to CXCR4 (CXCL12 binding to CXCR4) | half-life at 20 μM (Stability in mouse serum; [6]) | half-life at 20 μM (Stability in mouse serum; [7]) | half-life at 20 μM (Stability in mouse serum; read-out: t½ in murine serum) | Stability half-life (t1/2), lung homogenate ([3]; mouse lung homogenate) | percentage of starting molecule recovered, lung homogenate ([3]; time not given) | Stability half-life (t1/2), PBS ([4]; PBS pH 7.4) | Stability half-life (t1/2), PBS, 10% β-cyclodextrine ([4]; PBS with 10% HP-βCD) | percentage of starting molecule recovered, PBS ([4]; at 10 h) | percentage of starting molecule recovered, PBS, 10% β-cyclodextrine ([4]; at 10 h)
– | – | COc1cc(/C=C(\C#N)C(=O)c2ccc(Cl)cc2)ccc1O [CN-chalcone 4, (E)-2-(4-chlorobenzoyl)-3-(4-hydroxy-3-methoxyphenyl)acrylonitrile] | 99.6 ± 6% | 123 ± 4 mg | 99.6 ± 6% | 125 ± 11 mg | no toxicity | 6.9 ± 0.4 µM | > 1 µM | 1.3 h | 0.3 h | 0.333 h | – | – | – | – | – | –
96% | 91% | COc1cc(/C=C/C(=O)c2ccc(Cl)cc2)ccc1O [chalcone 4] | – | – | – | – | – | 4.1 ± 0.3 µM | – | > 16 h | > 16 h | – | > 6 h | 60% | > 10 h | > 10 h | 98% | 95%
